Measurements taken from patent US11180462B2, “Microbiocidal oxadiazole derivatives” (SYNGENTA PARTICIPATIONS AG, priority 2015, dated 2021).

How the values were obtained:
[1] = test system: Puccinia recondita f. Sp. Tritici; test: Fungicidal activity against Puccinia recondita f. sp. tritici / wheat / leaf disc preventative (brown rust); format: in vivo; settings: foliar, 200 ppm in the applied formulation, wheat leaf segments, preventative, compared to untreated control leaf disks, read-out: disease control
Procedure, shortened: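 Percent disease control relative to untreated check segments is scored once disease develops, 7 to 9 days after application. Wheat cv. Kanzler segments receive compound spray (200 ppm in formulation) one day before spore inoculation, then sit at 19° C. and 75% rh under 12 h light/12 h dark.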

[2] = test system: Glomerella lagenarium (Colletotrichum lagenarium); test: Fungicidal activity against Glomerella lagenarium (Colletotrichum lagenarium) liquid culture / cucumber / preventative (anthracnose); format: cell-based; settings: Colletotrichum orbiculare; 20 ppm in the applied formulation; liquid culture (PDB), growth inhibition measured photometrically after 3 to 4 days; compared to untreated control; read-out: disease control
Procedure, shortened: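 Percent activity against the untreated check was derived from photometric growth measurements made 2 to 7 days after conidia in potato dextrose broth were combined with compound at 20 ppm. Cultures were kept dark at 24 °C and 96% humidity.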

[3] = test system: Puccinia recondita f. Sp. Tritici; test: Fungicidal activity against Puccinia recondita f. sp. tritici / wheat / leaf disc curative (brown rust); format: in vivo; settings: foliar, 24 h, 200 ppm in the applied formulation, wheat leaf segments, curative (applied 1 day after inoculation), compared to untreated control leaf disks, read-out: disease control
Protocol: Leaf disks or leaf segments of various plant species are cut from plants grown in a greenhouse. The cut leaf disks or segments are placed in multiwell plates (24-well format) onto water agar. The leaf disks are sprayed with a test solution before (preventative) or after (curative) inoculation. Compounds to be tested are prepared as DMSO solutions (max. 10 mg/ml) which are diluted to the appropriate concentration with 0.025% Tween20 just before spraying. The inoculated leaf disks or segments are incubated under defined conditions (temperature, relative humidity, light, etc.) according to the respective test system. A single evaluation of disease level is carried out 3 to 14 days after inoculation, depending on the pathosystem. Percent disease control relative to the untreated check leaf disks or segments is then calculated.
Fungicidal Activity Against Puccinia recondita f. Sp. Tritici/Wheat/Leaf Disc Curative (Brown Rust)
Wheat leaf segments cv. Kanzler are placed on agar in multiwell plates (24-well format). The leaf segments are then inoculated with a spore suspension of the fungus. Plates were stored in darkness at 19° C. and 75% relative humidity. The formulated test compound diluted in water was applied 1 day after inoculation. The leaf segments were incubated at 19° C. and 75% relative humidity under a light regime of 12 hours light/12 hours darkness in a climate cabinet and the activity of a compound was assessed as percent disease control compared to untreated when an appropriate level of disease damage appears in untreated check leaf segments (6 to 8 days after application).
The following compounds at 200 ppm in the applied formulation give at least 80% disease control in this test when compared to untreated control leaf disks under the same conditions, which show extensive disease development.

Row | SMILES | pest or weed control at 200 ppm [1] [%] | inhibition of growth at 20 ppm [2] [%] | pest or weed control at 200 ppm [3] [%]
1 | CN(Cc1ccc(-c2noc(C(F)(F)F)n2)cc1)C(=O)N1CCCO1 [Compound 3.69, N-methyl-N-[[4-[5-(trifluoromethyl)-1,2,4-oxadiazol-3-yl]phenyl]methyl]-isoxazolidine-2-carboxamide] | ≥ 80 | ≥ 80 | ≥ 80
2 | CN(Cc1ccc(-c2noc(C(F)(F)F)n2)cc1)C(=O)N(C)CC1CC1 [Compound 3.83, 1-(cyclopropylmethyl)-1,3-dimethyl-3-[[4-[5-(trifluoromethyl)-1,2,4-oxadiazol-3-yl]phenyl]methyl]urea] | ≥ 80 | ≥ 80 | ≥ 80
3 | CCN(Cc1ccc(-c2noc(C(F)(F)F)n2)cc1)C(=O)N1CCCO1 [Compound 3.87, N-ethyl-N-[[4-[5-(trifluoromethyl)-1,2,4-oxadiazol-3-yl]phenyl]methyl]-isoxazolidine-2-carboxamide] | ≥ 80 | ≥ 80 | ≥ 80
4 | CCC(C)N(Cc1ccc(-c2noc(C(F)(F)F)n2)cc1)C(=O)CC1CC1 (stereo not shown) [Compound 1.375, 2-cyclopropyl-N-sec-butyl-N-[[4-(5-(trifluoromethyl)-1,2,4-oxadiazol-3-yl]phenyl]methyl]-acetamide] | ≥ 80 | ≥ 80 | ≥ 80
5 | CCN(Cc1ccc(-c2noc(C(F)(F)F)n2)cc1)C(=O)N(C)CC(=O)NC [Compound 3.86, 2-[[ethyl-[[4-[5-(trifluoromethyl)-1,2,4-oxadiazol-3-yl]phenyl]methyl]-carbamoyl]-methyl-amino]-N-methyl-acetamide] | ≥ 80 | – | ≥ 80
6 | CNC(=O)CN(C)C(=O)N(C)Cc1ccc(-c2noc(C(F)(F)F)n2)cc1 [Compound 3.68, N-methyl-2-[methyl-[methyl-[[4-[5-(trifluoromethyl)-1,2,4-oxadiazol-3-yl]phenyl]methyl]-carbamoyl]-amino]acetamide] | ≥ 80 | – | ≥ 80
7 | C#CCN(Cc1ccc(-c2noc(C(F)(F)F)n2)cc1)C(=O)C1CCSCC1 [Compound 1.188, N-prop-2-ynyl-N-[[4-[5-(trifluoromethyl)-1,2,4-oxadiazol-3-yl]phenyl]methyl]-tetrahydrothiopyran-4-carboxamide] | ≥ 80 | – | ≥ 80
8 | CON(Cc1ccc(-c2noc(C(F)(F)F)n2)cc1)C(=O)CN [Compound 1.788, [2-[methoxy-[[4-[5-(trifluoromethyl)-1,2,4-oxadiazol-3-yl]phenyl]methyl]-amino]-2-oxo-ethyl]ammonium; chloride] | ≥ 80 | – | ≥ 80
9 | CON(Cc1ccc(-c2noc(C(F)(F)F)n2)cc1)C(=O)Cc1ccc(C#N)cc1 [Compound 1.52, 2-(4-cyanophenyl)-N-methoxy-N-[[4-[5-(trifluoromethyl)-1,2,4-oxadiazol-3-yl]phenyl]methyl]-acetamide] | ≥ 80 | – | ≥ 80
10 | CON(Cc1ccc(-c2noc(C(F)(F)F)n2)nc1)C(=O)C1CCCO1 (stereo not shown) [Compound 1.789, N-methoxy-N-[[6-[5-(trifluoromethyl)-1,2,4-oxadiazol-3-yl]-3-pyridyl]methyl]-tetrahydrofuran-2-carboxamide] | ≥ 80 | – | ≥ 80
11 | CCC(COC)C(=O)N(CCOC)Cc1ccc(-c2noc(C(F)(F)F)n2)cc1 (stereo not shown) [Compound 1.353, N-(2-methoxyethyl)-2-(methoxymethyl)-N-[[4-[5-(trifluoromethyl)-1,2,4-oxadiazol-3-yl]phenyl]methyl]-butanamide] | ≥ 80 | – | ≥ 80
12 | COCCN(Cc1ccc(-c2noc(C(F)(F)F)n2)cc1)C(=O)C1CCCN1C(C)=O (stereo not shown) [Compound 1.357, 1-acetyl-N-(2-methoxyethyl)-N-[[4-[5-(trifluoromethyl)-1,2,4-oxadiazol-3-yl]phenyl]methyl]-pyrrolidine-2-carboxamide] | ≥ 80 | – | ≥ 80
